# Experimental data taken from patent US11224619B2, “Formulations and methods for treatment of inflammatory skin diseases” (Zemtsov Enterprises, LLC, priority 2012, dated 2022).
# Tested on: atopic dermatitis / plaque psoriasis
# Assay: Response of individual study subjects to earlier therapy
molecule,measurement,setting,value
CC(=O)OCC(=O)[C@@]12OC(C)(C)O[C@@H]1C[C@H]1[C@@H]3C[C@H](F)C4=CC(=O)C=C[C@]4(C)[C@@]3(F)[C@@H](O)C[C@@]12C [fluocinonide],Response to earlier therapy,"Subject #5, persistent psoriatic lesions on the abdomen",unresponsive
etanercept,Disease control under ongoing therapy,"Subject #5, chronic severe plaque psoriasis, subcutaneous injections",reasonable control
C[C@H]1C[C@H]2[C@@H]3CCC4=CC(=O)C=C[C@]4(C)[C@@]3(F)[C@@H](O)C[C@]2(C)[C@@]1(O)C(=O)CCl [clobetasol],Response to earlier therapy,"Subject #2, chronic atopic dermatitis on the neck",unresponsive
